Results taken from patent US5776928A (priority 1995, dated 1998).

Key:
5-HT1C receptor = experiment: activity at the 5-HT1C receptor; conditions: anhydrous Form I
[1] = detection of radiolabelled compound in saliva; assay type: in vivo
Description: For example, in the treatment of adult humans, dosages of from about 0.25 to 50 mg, preferably from 1 to 30 mg, and most preferably 1 to 20 mg per day may be used. A once a day dosage is normally sufficient, although divided doses may be administered. For treatment of a dyskinesia, a dose range of from 1 to 30 mg, preferably 1 to 20 mg per day is suitable.

rats = experiment: in vivo observation in rats exposed to an overdose
[2] = system: muscarinic cholinergic receptor; experiment: pharmacological studies, muscarinic cholinergic receptor activity
clinical subjects = experiment: clinical observation of pupils in clinical subjects; assay type: in vivo

SMILES	activity at the 5-HT1C receptor (5-HT1C receptor)	detection in the saliva [1]	salivation (rats)	muscarinic cholinergic receptor activity [2]	pupilary effect (clinical subjects)
Cc1cc2c(s1)Nc1ccccc1N=C2N1CCN(C)CC1 [anhydrous Form I compound]	active	–	–	–	–
Cc1cc2c(s1)Nc1ccccc1N=C2N1CCN(C)CC1	–	can be detected in the saliva	significant salivation	has muscarinic cholinergic receptor activity	pupilary constriction rather than the expected pupilary dilation
